Square brackets hold non-standard residues; d marks the D form. Peptide text beside a SMILES is read from it. dNle = CCCC[C@@H](N)C(=O)O; dNva = CCC[C@@H](N)C(=O)O; Orn = NCCC[C@H](N)C(=O)O
Tests used:
[1] = molecular target: Mu-type opioid receptor (Rattus norvegicus) (UniProt P33535); assay: Ratio of binding affinity of opioid receptor mu and opioid receptor delta
[2] = molecular target: Delta-type opioid receptor (Rattus norvegicus) (UniProt P33533); assay: The relative potency of compound was measured against opioid receptor delta to that of [Leu]enkephalin in [3H]DSLET binding assay.
[3] = molecular target: Mu-type opioid receptor (Rattus norvegicus) (UniProt P33535); assay: The relative potency of compound was measured against Opioid receptor mu to that of [Leu]enkephalin in [3H]DAGO binding assay.
[4] = Ratio of IC50 in Mouse vas deferens and Guinea pig ileum assay; format: functional
Cavia porcellus [5] = species on record: Cavia porcellus; assay: Ke value for naloxon as antagonist (compound) was measured by using Guinea pig ileum assay.; format: functional
Mus musculus [6] = species on record: Mus musculus; assay: Ke value for naloxone as antagonist (compound) was measured by using Mouse vas deferens (MVD) assay.; format: functional
Mus musculus [7] = species on record: Mus musculus; assay: Concentration of compound to inhibit 50% (IC50) electrically evoked contractions was tested in Mouse vas deferens (MVD) assay.; format: functional
Mus musculus [8] = species on record: Mus musculus; assay: The relative potency of compound was measured by comparing with [Leu]enkephalin in Mouse vas deferens (MVD) assay.; format: functional
Cavia porcellus [9] = species on record: Cavia porcellus; assay: The relative potency of compound was measured by comparing with [Leu]enkephalin in Guinea pig ileum(GPI) assay.; format: functional
Cavia porcellus [10] = species on record: Cavia porcellus; assay: Concentration of compound to inhibit 50% (IC50) electrically evoked contractions was tested in Guinea pig ileum(GPI) assay.; format: functional
Cavia porcellus [11] = species on record: Cavia porcellus; assay: The relative potency of compound was measured by comparing the potency of compound to the [Leu]enkephalin in Guinea pig ileum(GPI) assay.; format: functional
Mus musculus [12] = species on record: Mus musculus; assay: The relative potency of compound was measured by comparing the potency of compound to the [Leu]enkephalin in Mouse vas deferens (MVD) assay.; format: functional
[13] = molecular target: Delta-type opioid receptor (Rattus norvegicus) (UniProt P33533); assay: The relative potency of compound was measured against Opioid receptor delta 1 to that of [Leu]enkephalin in [3H]DSLET binding assay.
[14] = molecular target: T1, Delta-type opioid receptor (Rattus norvegicus, UniProt P33533); assay: Binding affinity against Opioid receptor delta 1 by displacement of radioligand [3H]DSLET in rat brain membrane; format: cell membranes
[15] = molecular target: Mu-type opioid receptor (Rattus norvegicus) (UniProt P33535); assay: The relative potency of compound was measured against Opioid receptor mu 1 to that of [Leu]enkephalin in [3H]DAGO binding assay.
Mu-type opioid receptor [16] = molecular target: T2, Mu-type opioid receptor (Rattus norvegicus, UniProt P33535); assay: Binding affinity against Opioid receptor mu 1 by displacement of radioligand [3H]-DAGO in rat brain membrane; format: cell membranes
Mu-type opioid receptor [17] = molecular target: T2, Mu-type opioid receptor; assay: Binding affinity against opioid receptor mu by displacement of radioligand [3H]DAGO in rat brain membrane; format: cell membranes
[18] = molecular target: T1, Delta-type opioid receptor; assay: Binding affinity against opioid receptor delta by displacement of radioligand [3H]DSLET in rat brain membrane; format: cell membranes
Mu-type opioid receptor [19] = molecular target: T2, Mu-type opioid receptor; assay: Binding affinity against mu opioid receptor by displacement of radioligand [3H]DAGO in rat brain membrane; format: cell membranes
[20] = molecular target: T1, Delta-type opioid receptor; assay: Binding affinity against delta opioid receptor by displacement of radioligand [3H]DSLET in rat brain membrane; format: cell membranes
Mu-type opioid receptor [21] = molecular target: T2, Mu-type opioid receptor; assay: Binding affinity against Opioid receptor mu 1 by displacement of radioligand [3H]DAGO in rat brain membrane; format: cell membranes
[22] = molecular target: Delta-type opioid receptor (Rattus norvegicus) (UniProt P33533); assay: The relative potency of compound was measured against dOpioid receptor delta 1 to that of [Leu]enkephalin in [3H]DSLET binding assay.

Sequence of Mu-type opioid receptor (Rattus norvegicus) (P33535 whole entry): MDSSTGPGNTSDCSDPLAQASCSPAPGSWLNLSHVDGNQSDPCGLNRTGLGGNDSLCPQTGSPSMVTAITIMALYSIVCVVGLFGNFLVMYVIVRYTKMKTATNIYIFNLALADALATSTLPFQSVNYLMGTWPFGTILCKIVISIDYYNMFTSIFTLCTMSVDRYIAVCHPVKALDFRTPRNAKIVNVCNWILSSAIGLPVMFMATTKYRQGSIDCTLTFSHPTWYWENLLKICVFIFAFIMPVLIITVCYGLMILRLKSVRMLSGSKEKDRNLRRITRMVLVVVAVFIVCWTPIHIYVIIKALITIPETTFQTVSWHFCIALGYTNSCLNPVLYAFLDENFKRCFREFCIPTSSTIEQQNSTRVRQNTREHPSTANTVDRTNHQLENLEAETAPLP
T2 sequence (P33535 whole entry): as above
Sequence of Delta-type opioid receptor (Rattus norvegicus) (P33533 whole entry): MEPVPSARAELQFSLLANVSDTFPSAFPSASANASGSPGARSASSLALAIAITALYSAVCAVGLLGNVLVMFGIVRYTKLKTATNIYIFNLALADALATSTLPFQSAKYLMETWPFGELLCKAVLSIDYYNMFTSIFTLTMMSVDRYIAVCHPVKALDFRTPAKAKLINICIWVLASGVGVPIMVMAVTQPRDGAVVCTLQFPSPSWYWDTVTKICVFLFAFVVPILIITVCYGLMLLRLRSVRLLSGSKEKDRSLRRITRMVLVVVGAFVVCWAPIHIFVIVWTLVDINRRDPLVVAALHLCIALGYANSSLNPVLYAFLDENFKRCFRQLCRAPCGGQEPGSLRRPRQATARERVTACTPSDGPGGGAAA
T1 sequence (P33533 whole entry): as above

| Compound | Ratio [4] | Ke (Cavia porcellus [5]) | Ke (Mus musculus [6]) | IC50 (Mus musculus [7]) | IC50 (Cavia porcellus [10]) | Relative potency (Cavia porcellus [11]) | Relative potency (Mus musculus [12]) | other results |
| --- | --- | --- | --- | --- | --- | --- | --- | --- |
| NC(=O)[C@H]1CC(=O)NCCC[C@H](NC(=O)[C@@H](N)c2ccc(O)cc2)C(=O)N[C@@H](Cc2ccccc2)C(=O)N1 |  |  |  |  |  |  |  | Ratio [1]: 213; Relative potency [2]: 0.00114; Relative potency [3]: 0.907 |
| CCC[C@@H](NC(=O)[C@@H](N)Cc1ccc(O)cc1)C(=O)N[C@@H](Cc1ccccc1)C(=O)N[C@@H](CCCN)C(N)=O (H-Y[dNva]F[Orn]-NH2) | 2.61 | 1.55 nM | 1.47 nM | 271 nM | 104 nM |  |  | Relative potency (Mus musculus [8]): 0.042; Relative potency (Cavia porcellus [9]): 2.36 |
| C[C@@H](NC(=O)[C@@H](N)Cc1ccc(O)cc1)C(=O)N[C@@H](Cc1ccccc1)C(=O)N[C@@H](Cc1ccccc1)C(=O)N[C@@H](CCCN=C(N)N)C(=O)N[C@@H](CCCN=C(N)N)C(N)=O | 60.2 | 0.57 nM | 1.27 nM | 1300 nM | 21.6 nM | 11.4 | 0.00875 | Relative potency [13]: 0.0152; Ki [14]: 167 nM; Relative potency [15]: 3.67; Ki (Mu-type opioid receptor [16]): 2.57 nM |
| NC(=O)[C@@H]1CC(=O)NCCC[C@@H](NC(=O)[C@@H](N)c2ccc(O)cc2)C(=O)N[C@@H](Cc2ccccc2)C(=O)N1 [listing 1 of 2 here] |  |  |  | 3880 nM | 36.2 nM |  |  | Ki (Mu-type opioid receptor [17]): 10.4 nM; Ki [18]: 2220 nM |
| NC(N)=NCCC[C@@H](NC(=O)C(N)Cc1ccc(O)cc1)C(=O)NC(Cc1ccccc1)C(=O)NCCC(N)C(=O)O (stereo not given in full) | 2.56 | 1.32 nM | 1.01 nM | 659 nM | 257 nM | 0.956 | 0.0173 | Ratio [1]: 2180; Relative potency [2]: 0.000202; Relative potency [3]: 1.63 |
| C[C@@H](NC(=O)[C@@H](N)Cc1ccc(O)cc1)C(=O)NCC(=O)N(C)[C@@H](Cc1ccccc1)C(=O)NCCO [DAMGO] |  |  |  | 950 nM | 28.3 nM |  |  | Ki [14]: 1280 nM |
| NC(=O)[C@@H]1CC(=O)NCCC[C@@H](NC(=O)[C@@H](N)c2ccc(O)cc2)C(=O)N[C@@H](Cc2ccccc2)C(=O)N1 [listing 2 of 2 here] | 107 | 1.57 nM | 2.11 nM |  |  | 6.8 | 0.00294 |  |
| C[C@@H](NC(=O)[C@@H](N)Cc1ccc(O)cc1)C(=O)N[C@@H](Cc1ccccc1)C(=O)N[C@@H](Cc1ccccc1)C(N)=O (H-Y[dA]FF-NH2) | 247 | 0.789 nM | 1.31 nM | 797 nM | 3.23 nM |  |  | Relative potency [13]: 0.00405; Relative potency (Mus musculus [8]): 0.0143; Relative potency (Cavia porcellus [9]): 76.2; Relative potency [15]: 6.15 |
| NCCCC[C@H](NC(=O)[C@H](Cc1ccccc1)NC(=O)[C@@H](CCCN=C(N)N)NC(=O)[C@@H](N)Cc1ccc(O)cc1)C(N)=O |  | 1.17 nM | 1.64 nM | 781 nM | 254 nM |  |  |  |
| NC(=O)[C@H](CCCN=C(N)N)NC(=O)[C@H](CCCN=C(N)N)NC(=O)[C@@H]1CC(=O)NCCC[C@@H](NC(=O)[C@@H](N)Cc2ccc(O)cc2)C(=O)N[C@@H](Cc2ccccc2)C(=O)N1 [listing 1 of 2 here] |  |  |  | 745 nM | 40.9 nM |  |  | Ki (Mu-type opioid receptor [19]): 23.6 nM; Ki [20]: 1880 nM |
| N=C(N)NCCC[C@@H](NC(=O)C(N)Cc1ccc(O)cc1)C(=O)NC(Cc1ccccc1)C(=O)NCCC(N)C(=O)O (stereo not given in full) |  |  |  |  |  |  |  | Ki (Mu-type opioid receptor [17]): 5.78 nM; Ki [18]: 12600 nM |
| CCCC[C@@H](NC(=O)[C@@H](N)Cc1ccc(O)cc1)C(=O)N[C@@H](Cc1ccccc1)C(=O)N[C@@H](CCCN)C(N)=O (H-Y[dNle]F[Orn]-NH2) | 13.6 | 1.01 nM | 1.5 nM | 2290 nM | 168 nM |  |  | Relative potency (Mus musculus [8]): 0.00498; Relative potency (Cavia porcellus [9]): 1.46 |
| NCCC[C@H](NC(=O)[C@H](Cc1ccccc1)NC(=O)[C@@H](CCCN=C(N)N)NC(=O)[C@@H](N)Cc1ccc(O)cc1)C(N)=O | 3.15 | 1.24 nM | 1.13 nM | 1090 nM | 346 nM | 0.712 | 0.0105 | Ratio [1]: 7740; Relative potency [2]: 0.000272; Relative potency [3]: 7.83 |
| NC(=O)[C@H](CCCN=C(N)N)NC(=O)[C@H](CCCN=C(N)N)NC(=O)[C@@H]1CC(=O)NCCC[C@@H](NC(=O)[C@@H](N)Cc2ccc(O)cc2)C(=O)N[C@@H](Cc2ccccc2)C(=O)N1 [listing 2 of 2 here] | 18.2 | 2.03 nM | 2.02 nM |  |  | 6.01 | 0.0153 |  |
| CCCC[C@H](NC(=O)[C@H](Cc1ccccc1)NC(=O)[C@@H](CCC)NC(=O)[C@@H](N)Cc1ccc(O)cc1)C(N)=O | 5 | 1.72 nM | 1.27 nM | 153 nM | 30.6 nM |  |  | Ki (Mu-type opioid receptor [21]): 3.53 nM; Relative potency [22]: 0.014; Ki [14]: 181 nM; Relative potency (Mus musculus [8]): 0.0745; Relative potency (Cavia porcellus [9]): 8.04; Relative potency [15]: 2.67 |
